Laboratory results taken from publication PMC12579247, “Tanshinone IIA inhibits heat-induced growth of p53-mutant Huh-7 hepatocellular carcinoma by modulating osmotic homeostasis and glycolysis through targeting ALDH7A1” (Cell Death Discovery, 2025).

Target: T1, ALDH7A1 (Homo sapiens, UniProt P49419)
T1 construct: endogenous protein in heat-pretreated (44 °C) Huh-7 cells; CETSA on total protein extract, detected by Western blot
T1 sequence (P49419 27-539): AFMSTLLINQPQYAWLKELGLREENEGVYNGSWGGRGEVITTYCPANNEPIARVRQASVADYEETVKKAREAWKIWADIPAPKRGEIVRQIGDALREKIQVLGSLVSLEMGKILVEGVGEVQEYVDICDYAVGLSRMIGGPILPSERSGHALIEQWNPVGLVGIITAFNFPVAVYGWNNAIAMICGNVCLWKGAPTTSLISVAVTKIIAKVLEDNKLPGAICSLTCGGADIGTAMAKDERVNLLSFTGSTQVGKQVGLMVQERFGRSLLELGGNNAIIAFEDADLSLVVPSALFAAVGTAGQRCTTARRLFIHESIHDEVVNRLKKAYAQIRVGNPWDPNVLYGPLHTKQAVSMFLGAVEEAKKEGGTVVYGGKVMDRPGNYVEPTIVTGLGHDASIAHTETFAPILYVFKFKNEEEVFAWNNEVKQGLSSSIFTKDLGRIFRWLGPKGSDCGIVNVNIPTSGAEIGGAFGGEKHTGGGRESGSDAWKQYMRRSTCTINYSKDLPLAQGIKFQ
Assay: CETSA, Western blot
Format: cell-based
Details: 0, 4, 8 µM for 24 h in cells, extract then heated at 63 °C for 5 min; heat-pretreated Huh-7 cells

Cc1coc2c1C(=O)C(=O)c1c-2ccc2c1CCCC2(C)C [Tan IIA]
CETSA, Western blot: CETSA results showed that the binding of Tan IIA to ALDH7A1 was concentration-dependent
